Assay: Human HepG2 cell viability assay in 384 well format
Format: toxicity, cell-based
Parameters: dose 125 nL, time 70.5 hour; cytotoxicity at 70.5 h: concentration not given beside the values
Conditions: HepG2 cells, read-out: Inhibition

In order of falling cytotoxicity at 70.5 h:
1. CN(Cc1nc(-c2cccnc2)no1)C(=O)c1cccn1C  53.7%
2. Cc1[nH]c2c(F)cccc2c1CC(=O)NCc1csc(N(C)C)n1  39.7%
3. COCCNC(=O)c1cnc(C)nc1C  34.7%
4. Cc1ccc(NC2CCCN(CCCc3ccccc3)C2)nn1 (stereo not given)  30.2%
5. Cc1nc[nH]c1CN(C)Cc1cnn(-c2ccc(F)cc2)c1  28.9%
6. Cc1oc(-c2cccc(F)c2F)nc1CN(C)CCC(C)(C)O  26.5%
7. C[C@@H]1CN(C(=O)C2(Cn3cccn3)CC2)CC[C@@]1(O)C1CC1  26.3%
8. O=C(O)c1ccnc(-c2ccnc(N3CCC(F)(F)CC3)n2)c1  21%
9. CC(C)[C@@H]1CN(Cc2ccccc2C#N)C[C@H]1C(=O)O  21%
10. CN1CC2(CCN(C(=O)c3ccc(=O)n(C)c3)CC2)CC1=O  18.9%
11. O=C1N(Cc2ccc(F)c(F)c2)CCCC1(O)CNCC1CCCCC1 (stereo not given)  18.7%
12. CCn1c(N)nc2cc(C(=O)NCc3cccc(C)c3C)cnc21  17.1%
13. O=C(NC1CCNCC1)C1(N2CCCCC2)Cc2ccccc2C1  13.5%
14. Cc1ccccc1CCC1CCCN(C(=O)Cc2cc(=O)[nH]c(N)n2)C1 (stereo not given)  10.8%
15. O=C1NCCN2CCN(C(=O)Nc3ccc(-c4ccccc4)cc3)CC12 (stereo not given)  10.4%
16. O=C(Nc1ccc(I)cc1C(=O)NCCN1CCOCC1)c1ccco1  8.88%
17. COc1ccc2c(c1)OCC(Cc1cncc(N)c1)C2 (stereo not given)  8.44%
18. CC(=O)NCc1nc(Cc2cccc(Cl)c2)nn1C1CCN(C)CC1  6.7%
19. Cc1ncc(CC(=O)N2CCCC(COc3ccc(F)cc3)C2)c(=O)[nH]1 (stereo not given)  2.89%
20. CCc1ccc(CN2CCN(c3ccc(C(N)=O)cn3)CC2)nc1  2.82%
21. COc1ccc(C(=O)N2CCC(C3CCN(c4ncccn4)CC3)C2)o1 (stereo not given)  2.75%
22. OCc1csc(N2CCCN(Cc3ccc(F)cc3)CC2)n1  2.55%
23. Cc1nnc(CN(C)CC2(O)CCCN(CCC3CCCCC3)C2=O)o1 (stereo not given)  2.51%
24. CC(C)C[C@@H](N)C(=O)N(C)Cc1csc(C(C)C)n1  2.05%
25. O=C(c1cc2c(s1)CCCCC2)N1CCC(c2ncc[nH]2)CC1  1.98%
26. c1cc(-c2ccc(CN3CCCC4(CCNC4)C3)s2)[nH]n1 (stereo not given)  1.71%
27. O=C(O)C(c1cccc2c1OCC2)N1CCC(N2CCSCC2)CC1 (stereo not given)  0.963%
28. CCc1ccc(C2CC(=O)Nc3n[nH]cc32)o1 (stereo not given)  0.796%
29. Cc1sc2ncnc(N3CCC(N(C)Cc4cnn(C)c4)CC3)c2c1C  0.374%
30. CN(Cc1ccco1)c1ccc(C(=O)NCCCc2ccccn2)cn1  0.076%
31. COc1ccc(F)cc1NC(=O)NCC1(CN2CCOCC2)CC1  -0.333%
32. O=C(c1coc(COc2cccc3cnccc23)n1)N1CCCCCC1  -1.27%
33. CC(=O)c1cc(CC(=O)N2CCN(CCOc3ccccc3)CC2)cs1  -1.31%
34. CCCN1CCCC2(CCN(S(=O)(=O)N3CCC(OC)CC3)C2)C1=O (stereo not given)  -1.84%
35. CC(C)[C@H](NC(=O)c1cccc(CCC(C)(C)O)c1)C(N)=O  -2.04%
36. CCCn1ncc(C(=O)NC2CCN(C3CCOCC3)CC2)c1C  -2.11%
37. CCN1CCC(Cn2ccc3c(OC)c(OC)ccc3c2=O)C1 (stereo not given)  -2.32%
38. CNC(=O)[C@@H]1C[C@@H](NC(=O)c2cn(C)nc2C)CN1Cc1sccc1C  -2.42%
39. CC(C)(O)CCc1cccc(C(=O)N2CCC3(CCOCC3)CC2)c1  -2.42%
40. CS(=O)(=O)NC1CCN(C(=O)c2coc(CN3CCOCC3)c2)CC1  -2.89%
41. CC(C)N1CCC2(CC1)CC(=O)N(Cc1cc(F)cc(F)c1)C2  -2.98%
42. CC(C)=CCN1CCNC(=O)C1CC(=O)N1CCc2sccc2C1 (stereo not given)  -3.67%
43. CCS(=O)(=O)N1CCC(c2nnc(CN3CCCCCC3)n2C)CC1  -3.73%
44. CC(=O)Nc1ccc(CN2C[C@H]3CC[C@@H]2CN(c2ncccn2)C3)cc1  -4.04%
45. CC(C)(C(=O)NCC1CCN(Cc2cccnc2)C1)c1ccccc1 (stereo not given)  -4.33%
46. CCSCCn1c(=O)n(Cc2ccc(F)cc2)c2ncc(C(=O)O)cc21  -4.52%
47. COc1ccc(C(=O)NCc2ccon2)cc1F  -5.07%
48. Cc1ccc(N2CCN(C(=O)C(O)c3cccc(Cl)c3)CC2=O)cc1 (stereo not given)  -5.15%
49. CCOCCCNc1nc2c(s1)c(C)nn2C  -5.29%
50. CCc1ccc(CN(CCN(C)C)Cc2ccc(C)s2)nc1  -5.3%
51. O=C(O)[C@@H]1CN(C(=O)CCN2CCCCC2)C[C@H]1c1ccccc1  -5.31%
52. c1ccc2oc(N3CCCC4(CCOC4)C3)nc2c1 (stereo not given)  -5.71%
53. Cc1ccc(CCNc2nccc(-c3cc(C(=O)O)ccn3)n2)o1  -6.22%
54. Cc1nc[nH]c1-c1nnc(SCC(=O)O)n1-c1ccccc1C(F)(F)F  -6.65%
55. CN(Cc1ccccc1Cl)C(C(=O)O)c1ccc(F)c(CO)c1 (stereo not given)  -7.98%
56. Cc1nsc(NC(=O)NC2(CN3CCOCC3)CCCC2)n1  -8.03%
57. O=C1CC(NCc2ncc[nH]2)CN1CCc1cccc(Cl)c1 (stereo not given)  -8.16%
58. CCOC(=O)N1CCC2(CCCN(C3CCOCC3)C2=O)C1 (stereo not given)  -8.17%
59. C=C(C)COc1ccccc1CN1CCCC(C(=O)NCCCO)C1 (stereo not given)  -8.32%
60. Cc1ccc(F)cc1-n1c(CN(C)S(C)(=O)=O)n[nH]c1=O  -8.73%
61. CC(=O)N[C@@H]1CN(Cc2nc3ccccc3[nH]2)C[C@H]1c1ccc(C)o1  -8.75%
62. CC(C)c1cc(NCC(O)c2ccccn2)n2nccc2n1 (stereo not given)  -8.96%
63. CCCc1cc(N2CCC(NCC3(O)CCCCC3)CC2)nc(C)n1  -8.99%
64. CC(Nc1nc(-c2ccncc2)nc2c1CCNC2)c1ccccc1 (stereo not given)  -9.03%
65. CCCc1nnc(NCCc2noc(C3CC3)n2)o1  -9.24%
66. CCCn1ccnc1CN1C[C@@H](CN2CCCN(C)CC2)[C@@H](CO)C1  -9.5%
67. CN(C)C(=O)N1C[C@@H]2CC[C@H](C1)N(S(=O)(=O)c1cccnc1)C2  -9.57%
68. Cc1ccsc1CCNC(=O)C1(Oc2cccnc2C)CCNCC1  -10.2%
69. CC(C)n1ccnc1CNC(=O)c1cccc(CCC(C)(C)O)c1  -10.5%
70. CC(Cc1ccc2c(c1)OCO2)c1cn(CCN2CCCC2)nn1 (stereo not given)  -12%
71. CC(Nc1ncnc2sccc12)c1cnn(C)c1 (stereo not given)  -12.3%
72. O=C(CC1CCCCC1)N1C[C@H]2CC[C@@H]1CN(Cc1cccnc1)C2  -13.3%
73. Cc1cc(C)nc(N2CCCC(c3nccn3CCCN(C)C)C2)c1 (stereo not given)  -13.7%
74. OC1CCN(c2ccnc(NCCN3CCc4ccccc4C3)n2)C1 (stereo not given)  -13.9%
75. CCc1nn(C)c(Cl)c1CN1CCC2(C1)CN(C)C(=O)O2 (stereo not given)  -17.2%
76. O=C1NCC(CN2CCc3onc(-c4ccc(C(F)(F)F)cc4)c3C2)O1 (stereo not given)  -17.3%
77. CCNC(=O)C1CCN(c2nccc(C3CCCC3)n2)C1 (stereo not given)  -17.7%
78. Cc1cc(C)c(C(=O)NC(CN2CCCC2)c2ccccc2)c(=O)[nH]1 (stereo not given)  -20.3%
79. Fc1ccccc1CN1CCCN(c2ncnc3[nH]ccc23)CC1  -24%
80. CC(C)=CCC1(C(=O)O)CCCN(CCC(=O)NC2CC2)C1 (stereo not given)  -25.9%

Source: ChEMBL document CHEMBL3507680, “University of Dundee, Gates Library screen for HepG2 cell viability”
